Measurements from publication PMC9482650, “Quantitative fragmentomics allow affinity mapping of interactomes” (Nature Communications, 2022).
Read-outs that look alike come from different tables or passages of the source. Ends that are not written are not given here.

What was measured:
MAST2 PDZ = target: T1, MAST2 PDZ (Homo sapiens, UniProt Q6P0Q8); test: biochemical; format: binding
T1 sequence (Q6P0Q8 1104-1192 limits assumed): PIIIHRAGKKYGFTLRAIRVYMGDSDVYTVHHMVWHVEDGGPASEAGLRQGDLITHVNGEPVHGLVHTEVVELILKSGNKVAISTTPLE

SCRIB_1 PDZ = SCRIB_1 PDZ (Homo sapiens, UniProt Q14160); test: Holdup assay; format: binding
SCRIB_1 PDZ, sequence (Q14160 728-815 limits assumed): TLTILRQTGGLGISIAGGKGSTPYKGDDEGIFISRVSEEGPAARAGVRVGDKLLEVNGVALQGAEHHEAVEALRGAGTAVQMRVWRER

DLG1_2 PDZ = DLG1_2 PDZ (Homo sapiens, UniProt Q12959); test: Holdup assay; format: binding
SCRIB2 PDZ = target: T2, SCRIB2 PDZ (Homo sapiens, UniProt Q14160); test: Holdup assay; format: binding
T2 sequence (Q14160 862-950 limits assumed): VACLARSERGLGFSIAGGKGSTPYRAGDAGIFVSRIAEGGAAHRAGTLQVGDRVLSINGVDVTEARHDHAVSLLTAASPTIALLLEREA

TX1BP3 PDZ = target: T3, TX1BP3 PDZ (Homo sapiens, UniProt O14907); test: Holdup assay; format: binding
T3 sequence (O14907 15-112 limits assumed): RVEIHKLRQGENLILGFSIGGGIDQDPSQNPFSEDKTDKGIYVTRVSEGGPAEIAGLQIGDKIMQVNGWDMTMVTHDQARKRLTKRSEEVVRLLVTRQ

SNX27 PDZ = SNX27 PDZ (Homo sapiens, UniProt Q96L92); test: Holdup assay; format: binding
DLG1_1 PDZ = DLG1_1 PDZ (Homo sapiens, UniProt Q12959); test: Holdup assay; format: binding
Htra1 = details: SPR; ref Murwantoko et al 2004; cited from earlier work
Excerpt: (§1) Supplement 41467_2022_33018_MOESM4_ESM.xlsx, sheet "reference DMI interactome" | column: Affinity (mM); pKd, measured in literature

Htra2 = details: SPR; ref Murwantoko et al 2004; cited from earlier work
Excerpt: as §1

SYNJ2BP PDZ = target: T4, SYNJ2BP PDZ (Homo sapiens, UniProt P57105); test: Holdup assay; format: binding
T4 sequence (P57105 13-100 limits assumed): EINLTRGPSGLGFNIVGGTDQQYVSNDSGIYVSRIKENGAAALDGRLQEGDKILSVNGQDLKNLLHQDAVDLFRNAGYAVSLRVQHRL

HEK293T cells = test: Label-free MS proteome of stable cell lines expressing HPV16 E6 or E6ΔPBM; format: cell-based, human; details: protein level
Experimental: HEK293T and HeLa cells were authenticated and found 100% identity to ATCC cat. CRL-3216 and ATCC cat. CCL-2, respectively. Jurkat and HaCat cell lines were not authenticated (original source: ECACC and Deutsches Krebsforschungszentrum DKFZ, respectively). HeLa cells were grown in DMEM (1 g/L glucose, Gibco) medium completed with 5% FCS and 40 μg/mL gentamicin, diluted every 3rd/4th day 1/10. HaCat cells were grown in DMEM (1 g/L glucose, Gibco) medium completed with 10% FCS and 40 μg/mL gentamicin, diluted every 3rd/4th day 1/4. Jurkat cells were grown in RPMI (Gibco) medium completed with 10% FCS and 40 μg/mL gentamicin, diluted every 3rd/4th day 1/12. All cells were kept at 37 °C and 5% CO2. For proteomics analyses cells were seeded on T-175 flasks. After they reached confluency, adherent cells were washed with PBS once and collected by scraping with ice-cold lysis buffer (Hepes-KOH pH 7.5 50 mM, NaCl 150 mM, Triton X-100 1%, complete EDTA-free protease inhibitor cocktail 1×, EDTA 2 mM, TCEP 5 mM, glycerol 10%). Jurkat cells were collected by 1000 g × centrifugation, washed once with PBS, then collected by 1000 g × 5 min centrifugation again and lysed in ice-cold lysis buffer. Lysates were sonicated 4 × 20 s with 1 s long pulses on ice, then incubated rotating at 4 °C for 30 min. Lysates were centrifuged at 12,000 rpm 4 °C for 20 min and supernatant was kept for further analysis. Concentration determination was carried out by standard Bradford method (Bio-Rad Protein Assay Dye Reagent #5000006) using BSA (MP BIomedicals #160069) as control on a Bio-Rad SmartSpec 3000 spectrophotometer instrument.
The samples were precipitated with TCA 20% overnight at 4 °C and centrifuged at 14,000 rpm for 10 min at 4 °C. The protein pellets were washed twice with 1 mL cold acetone and air dried. The protein extracts were solubilized in urea 8 M, reduced with 5 mM TCEP for 30 min, and alkylated with 10 mM iodoacetamide for 30 min in the dark. Double digestion was performed at 37 °C with 500 ng endoproteinase Lys-C for 4 h, followed by fourfold dilution and an overnight digestion with 500 ng trypsin. Peptide mixtures were then desalted on C18 spin-column and dried on Speed-Vacuum.
Samples were analyzed using an Ultimate 3000 nano-RSLC (Thermo Scientific, San Jose California) coupled in line with a LTQ-Orbitrap ELITE mass spectrometer via a nano-electrospray ionization source (Thermo Scientific, San Jose California). Peptide mixtures were injected in 0.1% TFA on a C18 Acclaim PepMap100 trap-column (75 µm ID × 2 cm, 3 µm, 100 Å, Thermo Fisher Scientific) for 3 min at 5 µL/min with 2% ACN, 0.1% FA in H2O and then separated on a C18 Accucore nano-column (75 µm ID × 50 cm, 2.6 µm, 150 Å, Thermo Fisher Scientific) at 220 nl/min and 38 °C with a 90 min linear gradient from 5% to 30% buffer B (A: 0.1% FA in H2O/B: 99% ACN, 0.1% FA in H2O), regeneration at 5% B. The mass spectrometer was operated in positive ionization mode, in data-dependent mode with survey scans from m/z 350–1500 acquired in the Orbitrap at a resolution of 120,000 at m/z 400. The 20 most intense peaks from survey scans were selected for further fragmentation in the Linear Ion Trap with an isolation window of 2.0 Da and were fragmented by CID with normalized collision energy of 35%. (TOP20CID method) Unassigned and single charged states were excluded from fragmentation. The Ion Target Value for the survey scans (in the Orbitrap) and the MS2 mode (in the Linear Ion Trap) were set to 1E6 and 5E3 respectively and the maximum injection time was set to 100 ms for both scan modes. Dynamic exclusion was set to 20 s after one repeat count with mass width at ±10 ppm.
Proteins were identified by database searching using SequestHT (Thermo Fisher Scientific) with Proteome Discoverer 2.4 software (PD2.4, Thermo Fisher Scientific) on human FASTA database downloaded from SwissProt (reviewed, release 2020_11_27, 20304 entries, https://www.uniprot.org/). […]

[1] = holdup affinity of the PBM peptide of the named protein, sheet PBMcomplexome, lower sub-table, 3.5 appears to be the floor for no detectable binding, read-out: affinity of PBM to SCRIB_1 (pKd) (converted)
[2] = holdup affinity of the PBM peptide of the named protein, sheet PBMcomplexome, lower sub-table, 3.5 appears to be the floor for no detectable binding, read-out: affinity of PBM to DLG1_2 (pKd) (converted)
[3] = holdup affinity of the PBM peptide of the named protein, sheet PBMcomplexome, lower sub-table, 3.5 appears to be the floor for no detectable binding, read-out: affinity of PBM to TX1BP3 (pKd) (converted)
[4] = holdup affinity of the PBM peptide of the named protein, sheet PBMcomplexome, lower sub-table
[5] = PBM motif of the named protein vs SCRIB_1 PDZ, read-out: pKd values – domain-motif, SCRIB_1 (converted)
[6] = PBM motif of the named protein vs DLG1_2 PDZ, read-out: pKd values – domain-motif, DLG1_2 (converted)
[7] = PBM motif of the named protein vs SCRIB_2 PDZ, read-out: pKd values – domain-motif, SCRIB_2 (converted)
[8] = PBM motif of the named protein vs TX1BP3 PDZ, read-out: pKd values – domain-motif, TX1BP3 (converted)
[9] = PBM motif of the named protein vs DLG1_1 PDZ, read-out: pKd values – domain-motif, DLG1_1 (converted)

Row | Compound | Kd (SNX27 PDZ; [4]) | Kd (SCRIB_1 PDZ; [5]) | Kd (DLG1_2 PDZ; [6]) | Kd (SCRIB2 PDZ; [7]) | Kd (TX1BP3 PDZ; [8]) | Kd (SNX27 PDZ) | Kd (DLG1_1 PDZ; [9]) | other results
1 | CC(C)C[C@H](NC(=O)[C@H](CC(=O)O)NC(=O)[C@@H]1CCCN1C(=O)[C@@H](NC(=O)CNC(=O)[C@H](CCC(=O)O)NC(=O)[C@H](CO)NC(=O)[C@H](CO)NC(=O)[C@H](CC(N)=O)NC(=O)[C@H](CC(C)C)NC(=O)[C@@H](N)CC(N)=O)C(C)C)C(=O)N[C@@H](CC(C)C)C(=O)N[C@H](C(=O)O)C(C)C [SARS-CoV-E] | – | – | – | – | – | – | – | Kd (MAST2 PDZ): 253 µM
2 | DDENIRTSDV [PLEKHA2] | 14.5 µM | – | – | – | – | – | – | Kd (SCRIB_1 PDZ; [1]): 178 µM; Kd (DLG1_2 PDZ; [2]): 34.7 µM; Kd (SCRIB2 PDZ; holdup affinity of the PBM peptide of the named protein, sheet PBMcomplexome, lower sub-table, 3.5 appears to be the floor for no detectable binding, read-out: affinity of PBM to SCRIB_2 (pKd) (converted)): 178 µM; Kd (TX1BP3 PDZ; [3]): 17.8 µM; Kd (DLG1_1 PDZ; holdup affinity of the PBM peptide of the named protein, sheet PBMcomplexome, lower sub-table, 3.5 appears to be the floor for no detectable binding, read-out: affinity of PBM to DLG1_1 (pKd) (converted)): 158 µM
3 | DTKNYKQTSV [CRIPT] | – | 13.2 µM | 8.51 µM | 24.5 µM | 3.98 µM | 4.68 µM | 44.7 µM | –
4 | EKPIDSETKM [SLC1A3] | 6.61 µM | – | – | – | – | – | – | –
5 | EVVHTPETSV [SLC16A3] | – | 8.32 µM | 50.1 µM | 33.1 µM | 145 µM | 7.08 µM | 135 µM | –
6 | FHPLGADSQV [SLC2A1] | – | 95.5 µM | 132 µM | – | 170 µM | 89.1 µM | – | –
7 | KKKKGQYYFV [HtrA2-Opt] | – | – | – | – | – | – | – | pKd, measured in literature (Htra1): 8.42; pKd, measured in literature (Htra2): 7.7167
8 | LDSQIQETSI [MAP4] | – | 2.75 µM | 42.7 µM | 35.5 µM | 110 µM | 1.86 µM | 229 µM | –
9 | PPRQRSETQV [HPV82E6] | – | – | – | – | – | – | – | Kd (SYNJ2BP PDZ): 13.7 µM
10 | QGLAERISVL [PRKD2] | 16.6 µM | – | – | – | – | – | – | Kd (SCRIB_1 PDZ; [1]): 170 µM; Kd (DLG1_2 PDZ; [2]): 214 µM; Kd (TX1BP3 PDZ; [3]): 41.7 µM
11 | QSARYRDTEL [TJP2 (ZO2)] | – | 34.7 µM | 170 µM | 126 µM | 17.4 µM | 20.4 µM | 209 µM | –
12 | TBCD | – | – | – | – | – | – | – | Difference log2 E6/Ctrl (HEK293T cells; E6 cell line vs control): 0.5689; Ratio E6/Ctrl (HEK293T cells; E6 cell line vs control): 1.483; Difference log2 dPBM/E6 (HEK293T cells; dPBM cell line vs E6 cell line): -3.03; Ratio dPBM/E6 (HEK293T cells; dPBM cell line vs E6 cell line): 0.1225; Difference log2 dPBM/Ctrl (HEK293T cells; dPBM cell line vs control): -2.461; Ratio dPBM/Ctrl (HEK293T cells; dPBM cell line vs control): 0.1817
13 | TSQESEDTYL [TBC1D10A] | 5.37 µM | – | – | – | – | – | – | Kd (SCRIB_1 PDZ; [1]): 102 µM
